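Briefly, cells in 96-well plates were exposed to five compound concentrations for 48 h, and endpoints were estimated by linear interpolation. At the GI50, growth is halved. TGI denotes the concentration required for complete inhibition of growth.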
Experiments:
Assay in all cases: growth of human tumour cells (NCI), 48 h
OVCAR-3 ovarian = test system: OVCAR-3 ovarian
SK-MEL-28 melanoma = test system: SK-MEL-28 melanoma
ACHN renal = test system: ACHN renal
RPMI-8226 leukemia = test system: RPMI-8226 leukemia
SNB-19 CNS = test system: SNB-19 CNS
SK-MEL-5 melanoma = test system: SK-MEL-5 melanoma
EKVX NSCLC = test system: EKVX NSCLC
M14 melanoma = test system: M14 melanoma
RXF 393 renal = test system: RXF 393 renal
SF-539 CNS = test system: SF-539 CNS

Structure (SMILES)	GI50 (OVCAR-3 ovarian) [µM]	TGI (OVCAR-3 ovarian) [µM]	GI50 (SK-MEL-28 melanoma) [µM]	TGI (SK-MEL-28 melanoma) [µM]	GI50 (ACHN renal) [µM]	TGI (ACHN renal) [µM]	GI50 (RPMI-8226 leukemia) [µM]	TGI (RPMI-8226 leukemia) [µM]	GI50 (SNB-19 CNS) [µM]	TGI (SNB-19 CNS) [µM]	GI50 (SK-MEL-5 melanoma) [µM]	TGI (SK-MEL-5 melanoma) [µM]	GI50 (EKVX NSCLC) [µM]	TGI (EKVX NSCLC) [µM]	GI50 (M14 melanoma) [µM]	TGI (M14 melanoma) [µM]	GI50 (RXF 393 renal) [µM]	TGI (RXF 393 renal) [µM]	GI50 (SF-539 CNS) [µM]	TGI (SF-539 CNS) [µM]
CC(C)CC(=O)Nc1n[nH]c2c1CN(C(=O)C1CCN(C)CC1)C2(C)C	0.435	5.25	0.626	> 10	> 10	> 10	0.506	5.97	1.05	> 10	0.743	5.7	1.14	> 10	2.24	> 10	1.22	4.04	1.78	8.99
CCN(CC)CCCC(C)Nc1nc(C)cc(Nc2ccc3nc(C)cc(N)c3c2)n1 (configuration not stated)	32.1	96.9	24.3	50.1	> 100	> 100	4.52	23	24.7	97	> 100	> 100	53.3	> 100	33.7	> 100	55.1	> 100	20.8	43.6
C#CCN(N=O)C(=O)NC(CCCNC(=O)OCc1ccccc1)C(=O)OCc1ccccc1 (configuration not stated)	–	> 100	–	> 100	–	> 100	–	> 100	–	> 100	–	> 100	–	> 100	–	> 100	–	84.4	–	> 100
N#CC(C#N)N=Nc1ccc(Br)cc1	2.5	15.4	3.41	26.5	1.99	7.89	1.52	8.03	27.5	> 100	5.13	34.1	6	> 83	3.33	16.8	3.63	14	3.57	18.3
Nc1ccccc1NC(=O)c1ccc(CCCC(=O)Nc2ccc(C3CC3N)cc2)cc1 (configuration not stated)	1.91	11.3	1.31	11.3	4.3	33.5	2.79	24.2	3.81	> 100	0.716	2.21	4.47	> 100	2.01	15.4	1.65	4.1	0.972	70.9
Cc1nc([C@H]2CC[C@H]3[C@@H]4CCC5=CC(=O)CC[C@]5(C)[C@H]4CC[C@]23C)cs1	> 22.6	> 100	> 100	> 100	7.72	> 100	0.531	–	> 100	> 100	1.45	> 100	1.65	> 100	15.9	> 100	10.6	> 100	18.3	> 100
COc1ccc(-c2nc(C(=O)c3ccccc3)n(CC(=O)c3ccccc3)c2-c2ccc(OC)cc2)cc1	> 100	> 100	> 100	> 100	> 100	> 100	> 100	> 100	> 100	> 100	> 100	> 100	> 100	> 100	> 100	> 100	> 100	> 100	> 100	> 100
COc1ccc(Cc2cc3c(cc2OCC(=O)O)OCO3)cc1	–	> 100	–	> 100	–	> 100	–	> 100	–	> 100	–	> 100	–	> 100	–	> 100	–	> 100	–	> 100
Fc1ccc(-c2ncn(C3CCNCC3)c2-c2ccnc(Oc3ccc(F)c(F)c3)n2)cc1	6.68	> 14.4	4.57	8.79	9.9	> 25	12.5	> 23.7	12.2	> 25	3.55	6.83	> 14.6	> 25	4.8	8.97	3.15	6.48	4.94	9.8
O=C(CC1(O)C(=O)Nc2ccccc21)c1ccco1 (configuration not stated)	–	> 100	–	> 100	–	> 100	–	> 100	–	> 100	–	> 100	–	> 100	–	> 100	–	> 100	–	> 100
COc1cc2c(cc1OC)C(OC)N(C)c1c-2ccc2cc3c(cc12)OCO3 (configuration not stated)	–	5.68	–	33.5	–	> 75	–	13.4	–	> 75	–	6.76	–	15	–	25.6	–	22.7	–	4.69
COC(=O)CCC(=O)Nc1cc(Cl)ccc1Cl	–	> 100	–	> 100	–	> 100	–	> 100	–	> 100	–	> 100	–	> 100	–	> 100	–	65.8	–	> 100
CS(=O)(=O)CCNCc1ccc(-c2ccc3ncnc(Nc4ccc(OCc5cccc(F)c5)c(C(F)(F)F)c4)c3c2)o1	4.07	8.47	3.71	7.2	4.14	8.67	4.79	15.6	4.81	11.4	2.84	5.9	3.12	9.94	4.36	8.67	2.85	6.15	4.59	12.3
CN1C(=O)[C@@H](NC(=O)[C@H](CCC(F)(F)F)[C@H](CCC(F)(F)F)C(N)=O)N=C(c2ccccc2)c2ccccc21	> 100	> 100	59.7	> 100	45	> 100	58.7	> 100	> 100	> 100	36.1	> 100	68	> 100	50.9	> 100	24.6	> 100	50.3	> 100
CCOC(=O)C(=O)Nc1ccc(Cl)cc1C	–	> 100	–	> 100	–	> 100	–	> 100	–	> 100	–	> 100	–	> 100	–	> 100	–	> 100	–	> 100
COC(=O)c1c(O)c([N+](=O)[O-])cc2c1c1c(n2Cc2ccccc2)C(=O)c2ccccc2C1=O	11.5	69.7	34.9	> 100	29.8	> 100	2.32	24.9	17.1	65.3	3.63	14.7	22.9	82.9	10.6	24.1	12.3	61.9	18.3	55.3
COc1cc(O)c2c(c1)C(=O)C=C(Cl)C2=O	–	> 100	–	> 100	–	> 100	–	> 100	–	> 100	–	> 100	–	> 100	–	> 100	–	> 100	–	> 100
S=C(Nc1ccc(Cl)cc1)Nc1ccc(-c2nc3ccccc3o2)cc1	13.6	44.7	20.6	43.2	17.3	35.8	3.8	23.2	25.6	> 100	14	32.2	19.4	64	23.2	52.9	10.9	30.7	19.2	41.8
O=C(O)c1ccc(S(=O)(=O)Nc2ccc3oc4c(c3c2)C(=O)CCC4)cc1	> 100	> 100	> 100	> 100	> 100	> 100	> 100	> 100	> 100	> 100	> 100	> 100	> 100	> 100	> 100	> 100	> 100	> 100	> 100	> 100
CC(=O)O[C@H]1CCC2[C@@H]3CCC4=C(O)C(=O)C(C#N)C[C@]4(C)C3CC[C@@]21C (some centres not stated)	–	> 100	–	> 100	–	> 100	–	> 100	–	> 100	–	71.1	–	> 100	–	> 100	–	> 100	–	> 100
N#CSc1c[nH]c2ccc(/C=C/C(=O)/C=C(/C=C/c3ccc4[nH]cc(SC#N)c4c3)OB(F)F)cc12	0.264	0.762	0.498	2.29	0.208	0.471	0.522	–	3.32	14.7	1.37	2.93	0.535	3.53	0.374	1.68	0.24	0.852	1.86	6.17
CCN(CC)c1ccc2c(c1)Oc1nc(N)c(C#N)c(N)c1C2Sc1ccc(OC)cc1 (configuration not stated)	1.69	3.1	1.85	3.37	1.59	2.94	1.96	5.02	1.8	3.26	1.54	2.9	0.479	1.97	1.77	3.33	1.88	3.35	1.64	3.04
O=C(O)c1cc2ccccc2c(N=Nc2cc(C(F)(F)F)ccc2Cl)c1O	–	> 100	–	> 100	–	> 100	–	> 100	–	21.5	–	> 100	–	> 100	–	> 100	–	> 100	–	> 100
CN(C)C/C=C/C(=O)Nc1cc2c(Nc3ccc(F)c(Cl)c3F)ncnc2cc1OCCOC(F)F	0.101	1.73	2.29	9.59	< 0.01	1.08	0.921	4.68	1.57	11.6	1.6	3.39	< 0.0302	3	1.87	6.2	0.241	1.6	0.999	3.02
Cc1cc(O)c(C2=NN(c3ccc(S(N)(=O)=O)cc3)C(c3ccc(N(C)C)cc3)C2)c(C)c1Cl (configuration not stated)	17.8	33.3	19.4	35.6	14.9	30.6	7.25	37.5	22.2	62.6	14.5	27.8	13.3	36.1	14	29.4	24.5	59.1	15.7	29.3
CN(CC#N)C1CCCC[C@H]1O (some centres not stated)	–	> 100	–	> 100	–	> 100	–	> 100	–	> 100	–	> 100	–	> 100	–	> 100	–	> 100	–	> 100
O=c1c(O)cccc2cc(O)c(O)c(O)c12	6.57	32.3	32.3	> 100	7.82	> 100	6.77	> 100	8.44	> 100	> 100	> 100	19.1	> 100	30.6	> 100	13.3	> 100	5.01	> 100
CN1CCN(c2cc(C(=O)Nc3cc4cc(-c5cnn(C)c5)ccc4cn3)ccn2)CC1	0.0425	0.288	0.217	2.89	0.0597	0.548	0.108	–	0.121	12	0.155	0.331	0.302	14.3	0.22	13.3	0.258	0.724	0.153	2.38

— PubChem BioAssay (NCI)
